In patent publication US6703414B2, “Device and method for treating restenosis” (Arizona Board of Regents on behalf of the University of …, priority 2001, dated 2004):

Key:
C57BL6 mice = test: in vivo; conditions: for Maximum tolerated dose mg/kg ip qD × 4: MTD = >10% body weight loss, C57BL6 mice; for Ratio liver toxicity/lymphocyte toxicity: liver toxicity relative to wortmannin/decrease in blood lymphocytes relative to wortmannin
Source text: (§1) Highlighted are the compounds being made for antitumor testing.

mTOR = mTOR (Homo sapiens, UniProt P42345); test: mTOR inhibition; format: biochemical
Source text: as §1

[1] = system: NCI cell panel (60 cell lines); test: cytotoxicity NCI cell panel, MTT assay; conditions: 48 h, read-out: cytotoxicity NCI cell panel IC50
Source text: as §1

in vivo = conditions: C57BL6, mouse, in vivo, ip
Source text: as §1

Structure (SMILES) | Maximum tolerated dose mg/kg ip qD × 4 (C57BL6 mice) [mg/kg] | Ratio liver toxicity/lymphocyte toxicity (C57BL6 mice) | IC50 (mTOR) [nM] | IC50 [1] [nM] | MTD at 4 days (in vivo) [mg/kg]
COC[C@H]1OC(=O)/C(=C/SCc2ccccc2)C2=C(O)C(=O)C3=C([C@H](OC(C)=O)C[C@]4(C)C(=O)CC[C@@H]34)[C@]21C [DJM2-170] | 9 | 1.5 | – | – | –
COC[C@H]1OC(=O)/C(=C/NC(C)C(=O)O)C2=C(O)C(=O)C3=C([C@H](OC(C)=O)C[C@]4(C)C(=O)CC[C@@H]34)[C@]21C (stereo partly drawn) [DJM2-177] | 6 | 0.1 | – | – | –
COC[C@H]1OC(=O)/C(=C/N2CCCC2)C2=C(O)C(=O)C3=C([C@H](OC(C)=O)C[C@]4(C)C(=O)CC[C@@H]34)[C@]21C [DJM2-167, Acetic acid 6-hydroxy-1α-methoxymethyl-10β,13β-dimethyl-3,7,17-trioxo-4-pyrrolidin-1-yl-methylene-1,3,4,7,10,11β,12,13,14α,15,16,17-dodecahydro-2-oxa-cyclopenta[α]phenanthren-11-yl] | – | – | > 3000 | 500 | –
COC[C@H]1OC(=O)c2coc3c2[C@@]1(C)C1=C(C3=O)[C@@H]2CCC(=O)[C@@]2(C)C[C@H]1OC(C)=O [wortmannin, reference compound] | – | – | – | – | 2.5
C=CCN(/C=C1/C(=O)O[C@H](COC)[C@@]2(C)C1=C(O)C(=O)C1=C2[C@H](OC(C)=O)C[C@]2(C)C(=O)CC[C@@H]12)CC=C [DJM2-166, Acetic acid 4-diallylaminomethylene-6-hydroxy-1-α-methoxymethyl-10β,13β-dimethyl-3,7,17-trioxo-1,3,4,7,10,11β,12,13,14α,15,16,17-dodecahydro-2-oxa-cyclopenta[α]phenanthren-11-yl ester] | – | – | > 3000 | 2200 | –
